Results published in PMC11352108, “Anti-Biofilm and Anti-Inflammatory Properties of the Truncated Analogs of the Scorpion Venom-Derived Peptide IsCT against Pseudomonas aeruginosa” (Antibiotics, 2024).
Where “and” joins values, the source holds several entries; their conditions need not be identical. Equal entries are not always repeated. Where no end group is shown, it is not given here.

Legend:
P. aeruginosa PAO1 = assay: Growth curve assay; format: cell-based, Pseudomonas aeruginosa; settings: 150 μM; for OD600nm, Mean / OD600nm, Exp.1 / OD600nm, Exp.2: 37 °C, 150 rpm; for OD600nm, Mean: mean of 2 experiments; for OD600nm, Exp.1: replicate Exp.1; for OD600nm, Exp.2: replicate Exp.2
Method: The effect of the IsCT-Δ6-8 peptide on the growth of P. aeruginosa was assessed as previously described. A culture of P. aeruginosa PAO1 was grown at a concentration of 10^6 CFU/ mL in the presence or absence of the IsCT-Δ6-8 peptide (final concentration, 150 µM) at 37 °C, with agitation at 150 rpm. The OD600 nm was then recorded at 0, 6, 12, 18, and 24 h.

[1] = test system: IL-6 production in P. aeruginosa LPS-stimulated RAW 264.7 macrophages; assay: IL-6 measurement (sandwich ELISA); format: cell-based, murine; settings: 48 h; for IL-6 (pg/mL), Exp.1: replicate Exp.1; for IL-6 (pg/mL), Mean: mean of 2 experiments, LPS alone 4081.029; for IL-6 (pg/mL), Exp.2: replicate Exp.2
Method: (§1) RAW 264.7 cells (3.5 × 10^5) were stimulated with P. aeruginosa lipopolysaccharide (100 ng/mL; Sigma, St. Louis, MO, USA) in the presence or absence of the IsCT-Δ6-8 peptide (37.5–150 μM, final concentration). After incubation at 37 °C under 5% CO2 for 48 h, supernatants were collected. The levels of nitrite (a stable breakdown of NO) were then determined using the Griess reagent system (Promega, Madison, Wisconsin, USA). The IL-6 levels in culture supernatant were quantified with the BioLegend ELISA MAXTM Deluxe Set according to the manufacturer’s protocols.

sheep red blood cells = assay: Hemolytic assay; format: cell-based
Method: A hemolytic assay was carried out according to the previously described method using commercially sourced sheep red blood cells (Professional Nanomed Company Limited, Bangkok, Thailand). One hundred microliters of a 2% sheep red blood cell suspension prepared in phosphate-buffered saline (PBS) pH 7.4. was incubated for 1 h at 37 °C with 100 μL of the studied peptides (final concentration of 150 µM). After centrifugation at 1000× g for 5 min, 100 μL of supernatant was transferred to new 96-well plates, and the release of hemoglobin was monitored, measuring an optical density (OD) at 405 nm using a BioTek Synergy HT microplate reader. Red blood cells treated with PBS pH 7.4 were used as a negative control, while those treated with 1% Triton X-100 were used as a positive control. The percent hemolysis was calculated as follows:(1) % Hemolysis=OD405 nm of the test peptide−OD405 nm of negative control/OD405 nm of positive control−OD405 nm of negative control × 100

[2] = test system: pyocyanin production by P. aeruginosa PAO1; assay: Pyocyanin assay (chloroform extraction); format: cell-based, Pseudomonas aeruginosa; settings: 24 h, 37 °C; for Pyocyanin production (%control), Exp.1: replicate Exp.1; for Pyocyanin production (%control), Mean: mean of Exp.1-3; for Pyocyanin production (%control), Exp.2: replicate Exp.2; for Pyocyanin production (%control), Exp.3: replicate Exp.3
Method: The effect of IsCT-Δ6-8 peptide on the production of pyocyanin pigments produced by P. aeruginosa PAO1 was assessed using the protocol described previously. In brief, 750 μL of P. aeruginosa culture (10^8 CFU/mL, final concentration) and 250 μL of the test peptide prepared in LB broth (final concentrations ranged from 37.5 μM to 150 μM) were incubated at 37 °C for 24 h with agitation (150 rpm). A P. aeruginosa culture without the IsCT-Δ6-8 peptide served as an untreated control. Thereafter, supernatants were collected by centrifugation at 3900× g for 10 min, and pyocyanin pigment was extracted twice using chloroform/0.2 N HCl. Centrifugation was performed at 3900× g for 10 min before the pink-colored solution was collected, and the absorbance was measured at […].

[3] = test system: P. aeruginosa PAO1 biofilms; assay: Biofilm susceptibility assay (crystal violet); format: cell-based, Pseudomonas aeruginosa; settings: 150 μM, 24 h, 37 °C, 10^6 CFU/mL, OD 550 nm, compared with untreated control
Method: The effect of the truncated IsCT analogs on biofilms of P. aeruginosa was assessed using a method that was described previously. Briefly, 100 μL of the test peptides (final concentration, 150 μM) was added to each well of a 96-well microtiter plate (Nunc^TM, Roskilde, Denmark). Then, an aliquot of P. aeruginosa PAO1 culture was added to each well to obtain a final concentration of 10^6 CFU/mL. The bacterial culture alone was included as an untreated control. Following a 24-h incubation at 37 °C, unattached planktonic cells were discarded, and the wells were carefully washed twice with PBS with a pH of 7.4. Thereafter, biofilm biomasses were quantified by 0.1% crystal violet staining. After excess stains were discarded, the wells were washed with PBS pH 7.4 and left to air dry for 2 h at 37 °C. The biofilm biomass was subsequently dissolved by the addition of 30% acetic acid, and the plates were spectrophotometrically read at 550 nm using a BioTek Synergy HT microplate reader.

[4] = test system: NO production in P. aeruginosa LPS-stimulated RAW 264.7 macrophages; assay: Nitric oxide measurement (Griess reagent); format: cell-based, murine; settings: 48 h; for Nitrite (µM), Exp.1: replicate Exp.1; for Nitrite (µM), Mean: mean of 2 experiments, LPS alone 24.5278; for Nitrite (µM), Exp.2: replicate Exp.2
Method: as §1

[5] = peptide 37.5 µM with LPS 100 ng/mL, 37 °C
[6] = peptide 37.5 µM with LPS 100 ng/mL
[7] = peptide 75 µM with LPS 100 ng/mL
[8] = peptide 150 µM with LPS 100 ng/mL

## ILGKIIKSLF [IsCT-Δ6-8]
P. aeruginosa PAO1; 0 h
  OD600nm, Mean: 0.0000
  OD600nm, Exp.1: 0.0000
  OD600nm, Exp.2: 0.0000
P. aeruginosa PAO1; 6 h, untreated control 0.3954
  OD600nm, Mean: 0.2100
P. aeruginosa PAO1; 6 h, untreated control 0.3955
  OD600nm, Exp.1: 0.2055
P. aeruginosa PAO1; 6 h, untreated control 0.3953
  OD600nm, Exp.2: 0.2145
P. aeruginosa PAO1; 12 h, untreated control 0.5425
  OD600nm, Mean: 0.4723
P. aeruginosa PAO1; 12 h, untreated control 0.5353
  OD600nm, Exp.1: 0.4765
P. aeruginosa PAO1; 12 h, untreated control 0.5498
  OD600nm, Exp.2: 0.4680
P. aeruginosa PAO1; 18 h, untreated control 0.6067
  OD600nm, Mean: 0.5898
P. aeruginosa PAO1; 18 h, untreated control 0.6213
  OD600nm, Exp.1: 0.5830
P. aeruginosa PAO1; 18 h, untreated control 0.5922
  OD600nm, Exp.2: 0.5965
P. aeruginosa PAO1; 24 h, untreated control 0.6209
  OD600nm, Mean: 0.6033
P. aeruginosa PAO1; 24 h, untreated control 0.6330
  OD600nm, Exp.1: 0.5450
P. aeruginosa PAO1; 24 h, untreated control 0.6088
  OD600nm, Exp.2: 0.6615
P. aeruginosa PAO1; 6 h and 12 h, compared to untreated control culture
  Growth of P. aeruginosa at early time points (in words): slow growth rate
P. aeruginosa PAO1; 18 h and 24 h, versus untreated control (p > 0.05)
  Growth of P. aeruginosa after prolonged exposure (in words): comparable to that of the untreated control culture
[1]; 37.5–150 μM, especially at 150 μM (p < 0.05 vs LPS-stimulated)
  Effect on LPS-induced IL-6 elevation (in words): reduced
[1]; [5]
  IL-6 (pg/mL), Exp.1: 4036.912 pg/mL
[1]; [6]
  IL-6 (pg/mL), Mean: 3742.794 pg/mL
  IL-6 (pg/mL), Exp.2: 3448.676 pg/mL
[1]; [7]
  IL-6 (pg/mL), Mean: 3664.363 pg/mL
  IL-6 (pg/mL), Exp.1: 3953.578 pg/mL
  IL-6 (pg/mL), Exp.2: 3375.147 pg/mL
[1]; [8]
  IL-6 (pg/mL), Mean: 3304.069 pg/mL
  IL-6 (pg/mL), Exp.1: 3514.853 pg/mL
  IL-6 (pg/mL), Exp.2: 3093.284 pg/mL
Sheep red blood cells; sheep erythrocytes, concentrations as high as 150 μM
  Hemolytic activity (in words): decreased hemolytic activity
Sheep red blood cells; sheep red blood cells, 1 h, 37 °C, peptides 150 μM (Triton X-100 1%), replicate Exp.1
  % Hemolysis, Exp.1: 1.56%
Sheep red blood cells; sheep red blood cells, 1 h, 37 °C, peptides 150 μM (Triton X-100 1%), replicate Exp.2
  % Hemolysis, Exp.2: 0.72%
Sheep red blood cells; sheep red blood cells, 1 h, 37 °C, peptides 150 μM (Triton X-100 1%), replicate Exp.3
  % Hemolysis, Exp.3: 3.45%
[2]; 37.5 µM, 10^8 CFU/mL, LB broth, absorbance 380 nm
  Pyocyanin production (%control), Exp.1: 124.961 %control
[2]; 37.5 µM
  Pyocyanin production (%control), Mean: 82.972 %control
  Pyocyanin production (%control), Exp.2: 54.723 %control
  Pyocyanin production (%control), Exp.3: 69.231 %control
[2]; 75 µM
  Pyocyanin production (%control), Mean: 69.677 %control
  Pyocyanin production (%control), Exp.1: 120.493 %control
  Pyocyanin production (%control), Exp.2: 42.094 %control
  Pyocyanin production (%control), Exp.3: 46.444 %control
[2]; 150 µM
  Pyocyanin production (%control), Mean: 48.905 %control
  Pyocyanin production (%control), Exp.1: 76.348 %control
  Pyocyanin production (%control), Exp.2: 36.550 %control
  Pyocyanin production (%control), Exp.3: 33.817 %control
[3]
  Decrease in P. aeruginosa biofilm biomass: 33.12% and 33%
[4]; 37.5–150 μM, in particular at 150 μM (p < 0.05 vs LPS-stimulated)
  Effect on LPS-induced nitrite increase (in words): reduced
[4]; [5]
  Nitrite (µM), Exp.1: 24.3889 µM
[4]; [6]
  Nitrite (µM), Mean: 24.2500 µM
  Nitrite (µM), Exp.2: 24.1111 µM
[4]; [7]
  Nitrite (µM), Mean: 23.5556 µM
  Nitrite (µM), Exp.1: 23.8889 µM
  Nitrite (µM), Exp.2: 23.2222 µM
[4]; [8]
  Nitrite (µM), Mean: 21.0833 µM
  Nitrite (µM), Exp.1: 21.5000 µM
  Nitrite (µM), Exp.2: 20.6667 µM
